Entries after “also recorded” stand apart in the source; their conditions may differ. Where a SMILES comes first, the peptide text is derived from it.
Experiments:
[1] = test system: C-FIT cells (cardiac fibroblasts immortalized with telomerase); experiment: Migration (wound/scratch) assay with C-FIT cells overexpressing Fzd-1 or -2; format: cell-based, rat
Method: For this assay, we used rat cardiac fibroblasts, which were immortalized with telomerase, the C-FIT cell line. This cell line was characterized previously and resembles features of primary cardiac fibroblasts. C-FIT cells were plated, treated when they were 70% confluent and a wound was made with a pipette tip at the moment of 100% confluence.
This assay was first tested with the natural ligand Wnt3a, in combination with frizzled-1 and -2 overexpression. […] Next step was to see whether the antagonist could counteract this. (See FIG. 4.)
Day 1: • Plate cells in 12-well plates
Day 2: • Transfection (see protocol)
Day 3: • Addition of conditioned medium
Day 4: • Make a scratch. This is time point zero.
Making pictures every six hours and analyzing the scratch width.
Cells were plated on day 0, and cultured until 70% confluence before transfection or treatment. Migration assays started 48 hours after transfection and/or treatment. The time point where the scratch was made, is indicated as 0 hours. Scratch width was measured at this time point, and also after 6, 12, and 24 hours.

hFzd-5 = biological target: T1, hFzd-5 (Homo sapiens, UniProt Q13467); experiment: Luciferase activity in HEK293 superTOPflash cells overexpressing hFzd-5; format: cell-based; details: 1.10^−8 M
T1 construct: expressed in transfected cells; host or cells: HEK293 superTOPflash, transient, pcDNA3.0
Method: (§1) In FIG. 3, Panel E, the efficacy of UM206 to block the Wnt3a-induced activation of luciferase activity in HEK293 superTOPflash cells transfected with different Fzds is shown.
The cell lines were cultured in 75 cm^2 culture flasks (Corning, Schiphol, the Netherlands) in Dulbeco's modified essential medium with L-glutamine (2 mM), 10% fetal calf serum (Invitrogen, Merelbeke, Belgium), and 1% gentamycin (Sigma-Aldrich, Zwijndrecht, The Netherlands). Before starting the experiment, the cell lines were treated with plasmocin 25 μg/ml (Invivogen, Toulose, France) and tested with a mycoalert mycoplasma detection kit (Lonza, Rockland Me., USA). Cells were transiently transfected with Fugene6 (Roche, Indianapolis Ind., USA) with plasmid DNA, pcDNA3.1/hygro (Invitrogen) with frizzled-1/2/4 or Wnts 3a-5a or with pcDNA3.0 (Invitrogen) containing the β-catenin or frizzled-5 sequence. After transfection, the cells were cultured for 24 hours in conditioned medium, collected from the cultured L-cells, L-cells with Wnt3a or 5a (Invitrogen). At the same moment the antagonist was added.

129S6 mice = experiment: Infarct rupture in 129S6 mice; format: in vivo; details: infarct rupture frequency ˜60%, unpublished observations
Source text: Because of the lack of pharmacological tools to intervene in Wnt/Fzd signaling in vivo, only genetic interventions have been reported so far in studies on the role of Wnt signaling in infarct healing. Barandon et al. were the first to show a beneficial effect of overexpression on infarct healing of FrzA, a bovine homologue of soluble frizzled-related protein-1 (sFRP1). They observed a decreased infarct size with elevated numbers of myofibroblasts and increased angiogenesis in the infarcted FrzA transgenic mice (Barandon et al., 2003), which could be confirmed in the present study using an Fzd-1 and -2 antagonist. […] In the mean time, the beneficial effects of sFRP overexpression on infarct healing have been confirmed by Kobayashi et al. (Kobayashi et al., 2009). Taken together, these reports support the observations of the present study and point to a beneficial effect of inhibiting Wnt/Fzd signaling on the wound-healing process after MI.

kidney = experiment: qPCR of Wnt target genes in kidney after long-term UM206 administration; format: in vivo, mice; design: key to Rel. exp. Col I / Rel. exp. DDK 2 / Rel. exp. DDK 3 / Rel. exp. Twist: expression normalized to cyclophilin housekeeping gene; key to Rel. exp. α-SMA / Rel. exp. DDK 1 / Rel. exp. α-actin / Rel. exp. LEF / Rel. exp. FN: relative expression, cyclophilin as housekeeping gene
Source text: (§2) RNA was isolated using the Trizol method (Invitrogen). For the RT-PCR, the RNA was transcribed to cDNA with iscript™ cDNA synthesis kit (Bio-Rad, Hercules Calif., USA), Syber green (Eurogentec, Ghent, Belgium) was used for the detection of cDNA levels and cyclophilin served as the house keeping gene. In Supplementary methods panel 5, the primer sequences are shown.

C-FIT cells = experiment: Differentiation assay (α-SMA) with C-FIT cells; format: cell-based, rat
Source text: For this assay, we used the same C-FIT cells as for the migration assay to study a second component of wound healing, namely, differentiation of fibroblasts into myofibroblasts. When wound healing starts, cells called fibroblasts migrate into the scar. These cells have no contractile properties; however, they can differentiate into myofibroblasts, which can actively contract. To study which signals influence the transition from fibroblast into myofibroblasts, we treated the C-FIT cells and harvested them for mRNA isolation. Next, we tested them for the presence of specific markers for myofibroblasts by reverse transcription of the mRNA and subsequent quantitative PCR analysis, which are absent in fibroblasts. One of those markers is α-smooth muscle actin, which makes the cells contract.
as §2

[2] = test system: Wnt/Fzd signal transduction cascade; experiment: Luciferase activity in HEK293-superTOPflash cells (Wnt/Fzd signal transduction cascade); format: cell-based, human; details: without Wnt3a
Source text: Human embryonic kidney (HEK) cells were used for screening. These cells have a luciferase construct stably transfected into the genome (see FIG. 2A), such that when the frizzled receptor is activated and β-catenin is increased, the luciferase is activated by transcription and light can be measured.
Three areas of high homology that contained two cysteines are underlined (UM207), (UM208) and (UM206). In FIGS. 9B through 9D, the inhibitory effect of these three peptides on Wnt3a-induced luciferase activity in HEK293-superTOPflash is shown. […] Again, the peptides by themselves had no effect on the luciferase activity.

mouse Fzd-2 = biological target: T2, mouse Fzd-2 (Mus musculus, UniProt Q9JIP6); experiment: Antagonism of Wnt3a activation of mouse Fzd-2 (data not shown); format: cell-based
T2 construct: expressed in transfected cells
Source text: as §1

small intestine = experiment: qPCR of Wnt target genes in small intestine after long-term UM206 administration; format: in vivo, mice; design: key to Rel. exp. Col I: expression normalized to cyclophilin housekeeping gene; key to Rel. exp. Inos / Rel. exp. CD 44 / Rel. exp. Axin 2 / Rel. exp. Itm 2A / Rel. exp. Mmp 2 / Rel. exp. Ascl 2 / Rel. exp. Dvl 2: relative expression, cyclophilin as housekeeping gene
Source text: This was confirmed by histological analysis of the infarct area.
as §2

[3] = mouse, in vivo
Method: UM206 was injected into the femoral artery of Swiss mice (concentration of 10^−9 M). Blood was sampled at different time points in the femoral vein. On the y-axis, the concentration of UM206 in the plasma is shown. This is determined with HPLC and the area under the peak is calculated and shown on the y-axis. All values were corrected for the baseline value.
In order to determine the pharmacokinetic properties of UM206, we injected 15 ng of the compound into the tail vein of mice and monitored the concentration in the blood at different time points.
Male Swiss mice were used (10-12 weeks of age, Charles River, Maastricht, The Netherlands).
Blood samples were collected from the animals for the pharmacokinetics and after 14 to 35 days treatment, to determine the concentration of UM206. Blood was centrifuged and the plasma was treated with 1% TFA.

T2 sequence (Q9JIP6 29-570): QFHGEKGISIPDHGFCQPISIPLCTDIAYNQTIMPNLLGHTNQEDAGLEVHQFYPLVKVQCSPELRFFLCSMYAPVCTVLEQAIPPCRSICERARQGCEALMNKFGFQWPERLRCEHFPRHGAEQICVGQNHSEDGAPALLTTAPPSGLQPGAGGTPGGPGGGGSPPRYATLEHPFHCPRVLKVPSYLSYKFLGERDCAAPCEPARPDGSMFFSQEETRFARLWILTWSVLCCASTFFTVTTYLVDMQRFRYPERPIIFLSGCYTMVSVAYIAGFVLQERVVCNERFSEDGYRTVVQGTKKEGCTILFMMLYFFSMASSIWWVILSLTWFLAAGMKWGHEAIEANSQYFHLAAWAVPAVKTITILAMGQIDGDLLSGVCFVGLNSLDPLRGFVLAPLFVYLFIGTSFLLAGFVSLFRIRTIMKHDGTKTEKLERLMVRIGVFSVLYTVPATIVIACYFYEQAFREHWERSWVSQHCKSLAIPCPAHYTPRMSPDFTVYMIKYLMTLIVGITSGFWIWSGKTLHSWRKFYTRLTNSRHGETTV
T1 sequence (Q13467 27-585): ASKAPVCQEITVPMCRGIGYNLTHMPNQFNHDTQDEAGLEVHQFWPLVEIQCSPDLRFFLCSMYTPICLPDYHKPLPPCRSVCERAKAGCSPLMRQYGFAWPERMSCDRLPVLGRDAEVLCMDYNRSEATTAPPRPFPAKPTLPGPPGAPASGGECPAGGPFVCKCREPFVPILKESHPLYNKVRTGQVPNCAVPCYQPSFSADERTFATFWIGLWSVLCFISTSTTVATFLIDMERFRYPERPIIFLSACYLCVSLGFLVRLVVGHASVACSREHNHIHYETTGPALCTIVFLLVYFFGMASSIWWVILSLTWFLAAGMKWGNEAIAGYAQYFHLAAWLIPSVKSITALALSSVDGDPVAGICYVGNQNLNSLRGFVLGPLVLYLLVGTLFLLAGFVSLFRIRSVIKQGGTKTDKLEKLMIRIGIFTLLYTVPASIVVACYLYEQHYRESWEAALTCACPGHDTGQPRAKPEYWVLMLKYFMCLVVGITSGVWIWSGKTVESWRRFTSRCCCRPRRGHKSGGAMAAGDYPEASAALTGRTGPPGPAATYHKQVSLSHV

CSCC[C@H](NC(=O)CNC(=O)[C@H](CCC(=O)O)NC(=O)[C@H](CO)NC(=O)[C@@H](NC(=O)[C@H](CCCCN)NC(=O)[C@H](CC(N)=O)NC(=O)[C@H](CS)NC(C)=O)[C@@H](C)O)C(=O)N[C@@H](CC(=O)O)C(=O)NCC(=O)N[C@@H](CS)C(=O)N[C@@H](CCC(=O)O)C(=O)N[C@@H](CC(C)C)C(N)=O [UM206, Ac-Cys-Asn-Lys-Thr-Ser-Glu-Gly-Met-Asp-Gly-Cys-Glu-Leu-NH2] (Ac-CNKTSEGMDGCEL-NH2)
effect of UM206 alone on cell migration [1]: no effect
Counteraction of Wnt3a/Wnt5a-induced attenuation of migration ([1]; UM206 1.10^−8 M, Fzd-1 or -2 overexpression): migration was reset to the migration speed of the control; also recorded: blocked completely; also recorded: block this effect completely
Effect on Wnt3a-induced luciferase activity, frizzled-5 (hFzd-5): no effect
number of ruptured infarcts (129S6 mice): did not reduce the number of ruptured infarcts
influence on gene expression in the kidney (kidney; UM206 for five weeks): These data indicate that UM206 had no influence on gene expression in the kidney.
Rel. exp. Col I (kidney; kidney): 1.39
Rel. exp. DDK 1 (kidney; kidney): 1.87
Rel. exp. DDK 2 (kidney; kidney): 1.44
Rel. exp. DDK 3 (kidney; kidney): 0.87
Rel. exp. FN (kidney; kidney): 1.66
Rel. exp. LEF (kidney; kidney): 1.70
Rel. exp. Twist (kidney; kidney): 1.49
Rel. exp. α-SMA (kidney; kidney): 1.21
Rel. exp. α-actin (kidney; kidney): 1.06
Effect on Wnt3a/5a-induced differentiation (α-SMA levels) (C-FIT cells): completely blocks this differentiation
Luciferase activity induced by the peptide by itself [2]: none of the three peptides by itself could induce an increase in luciferase activity
Antagonizing activation of mouse Fzd-2 by Wnt3a (mouse Fzd-2): fully effective
influence on the expression patterns in the small intestine (small intestine; UM206 for five weeks): These data indicate that UM206 had no influence on the expression patterns in the small intestine.
Rel. exp. Ascl 2 (small intestine; small intestine): 1.42
Rel. exp. Axin 2 (small intestine; small intestine): 1.05
Rel. exp. CD 44 (small intestine; small intestine): 1.22
Rel. exp. Col I (small intestine; small intestine): 1.32
Rel. exp. Dvl 2 (small intestine; small intestine): 1.13
Rel. exp. Inos (small intestine; small intestine): 1.18
Rel. exp. Itm 2A (small intestine; small intestine): 0.97
Rel. exp. Mmp 2 (small intestine; small intestine): 1.32
time until steady state is reached [3]: ~10 h
